Experimental data published in ChEMBL document CHEMBL1201862, “PubChem BioAssay data set” (2004).
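Tested at 5 concentrations; 48 h exposure; 96-well plates; endpoints linearly interpolated, else capped at highest concentration. GI50 is the concentration that inhibits growth by half.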 Activity calls are given as the source filed them. Rule as the data show it: active = GI50 up to about 1.1 µM and inactive = higher.

What was measured:
Assay in all cases: inhibition of tumour cell growth, NCI panel, 48 h
[1] = tested on: LXFL 529
[2] = tested on: SK-MEL-28
[3] = tested on: UACC-257
[4] = tested on: IGROV-1
[5] = tested on: SN12C
[6] = tested on: UO-31
[7] = tested on: SNB-75
[8] = tested on: LOX IMVI
[9] = tested on: SR
[10] = tested on: COLO 205
[11] = tested on: RXF 393
[12] = tested on: U-251
[13] = tested on: OVCAR-8
[14] = tested on: TK-10
[15] = tested on: SF-268
[16] = tested on: HOP-18
[17] = tested on: MOLT-4
[18] = tested on: 786-0
[19] = tested on: SNB-19
[20] = tested on: DMS-273
[21] = tested on: M14
[22] = tested on: HT-29
[23] = tested on: OVCAR-4
[24] = tested on: NCI-H522
[25] = tested on: HCT-116
[26] = tested on: SF-295
[27] = tested on: NCI-H226
[28] = tested on: HOP-62
[29] = tested on: M19-MEL
[30] = tested on: DMS-114
[31] = tested on: DLD-1
[32] = tested on: A549
[33] = tested on: NCI-H23
[34] = tested on: HOP-92
[35] = tested on: ACHN
[36] = tested on: OVCAR-3
[37] = tested on: EKVX
[38] = tested on: SNB-78
[39] = tested on: NCI-H460
[40] = tested on: A498
[41] = tested on: KM12
[42] = tested on: UACC-62
[43] = tested on: SF-539
[44] = tested on: CAKI-1
[45] = tested on: RPMI-8226
[46] = tested on: HCC 2998
[47] = tested on: SW-620
[48] = tested on: KM-20L2
[49] = tested on: K562
[50] = tested on: CCRF-CEM
[51] = tested on: SK-OV-3
[52] = tested on: OVCAR-5
[53] = tested on: Malme-3M
[54] = tested on: HL-60

Measured: GI50

CC1C[C@H](C)CC(C(O)CC2CC(=O)N(Cc3ccccc3)C(=O)C2)C1O (some centres undefined)
inactive: [1] > 100 µM | [2] > 100 µM | [3] > 100 µM | [4] > 100 µM | [5] > 100 µM | [6] > 100 µM | [7] > 100 µM | [8] > 100 µM | [9] > 100 µM | [10] > 100 µM | [11] > 100 µM | [12] > 100 µM | [13] > 100 µM | [14] > 100 µM | [15] > 100 µM | [16] > 100 µM | [17] > 100 µM | [18] > 100 µM | [19] > 100 µM | [20] > 100 µM | [21] > 100 µM | [22] > 100 µM | [23] > 100 µM | [24] > 100 µM | [25] > 100 µM | [26] > 100 µM | [27] > 100 µM | [28] > 100 µM | [29] > 100 µM | [30] > 100 µM | [31] > 100 µM | [32] > 100 µM | [33] 2.65 µM | [34] > 100 µM | [35] > 100 µM | [36] > 100 µM | [37] > 100 µM | [38] > 100 µM | [39] > 100 µM | [40] > 100 µM | [41] 48.9 µM | [42] > 100 µM | [43] > 100 µM | [44] > 100 µM | [45] > 100 µM | [46] > 100 µM | [47] > 100 µM | [48] > 100 µM | [49] > 100 µM | [50] > 100 µM | [51] > 100 µM | [52] > 100 µM | [53] > 100 µM | [54] > 100 µM
